Measurements published in US8053458B2, “Dipyrazole compounds and their use as central nervous system agents” (Aventis Pharmaceuticals Inc., priority 2005, dated 2011).
Marks after values point to notes of the source that are not given here.

Experiments:
NMDA receptors = assay: Voltage whole-cell recording: increase of NMDA-evoked current in acutely dissociated prefrontal cortical neurons; type: cell-based, rats; details: rat PFC neurons; for Increase of NMDA-Evoked Current, Minimal Effective Concentration: NMDA 100 μM in Mg2+-free solution, whole-cell voltage clamp; for Average percent increase in NMDA current (10 μM): compound at 10 μM, NMDA 100 μM
Description: (§1) Prefrontal cortical (PFC) neurons from young adult (3-5 weeks postnatal) rats are acutely dissociated using procedures similar to those described previously (Feng, et al., J Neurosci, 2001; Chen, et al., Proc Natl Acad Sci USA, 2004). After incubation of brain slices in a NaHCO3-buffered saline, PFC is dissected and placed in an oxygenated chamber containing papain (Sigma, 0.8 mg/ml) in HEPES-buffered Hank's balanced salt solution (HBSS, Sigma) at room temperature. After 40 minutes of enzyme digestion, tissue is rinsed three times in the low Ca^+2, HEPES-buffered saline and mechanically dissociated with a graded series of fire-polished Pasteur pipettes. The cell suspension is then plated into a 35 mm Lux Petri dish, which is then placed on the stage of a Nikon inverted microscope.
(§2) Whole-cell recordings of whole-cell ion channel currents employ standard voltage clamp techniques (Yan et al., Nat Neuroscience, 1999; Wang et al., J Neurosci, 2003; Tyszkiewicz et al., J. Physiol., 2004). The internal solution (inside the patch pipette) consists of (in mM): 180 N-methyl-d-glucamine (NMG), 40 HEPES, 4 MgCl2, 0.1 BAPTA, 12 phosphocreatine, 3 Na2ATP, 0.5 Na2GTP, 0.1 leupeptin, pH=7.2-7.3, 265-270 mosm/L. The external solution consists of (in mM): 127 NaCl, 20 CsCl, 10 HEPES, 1 CaCl2, 5 BaCl2, 12 glucose, 0.001 TTX, 0.02 glycine, pH=7.3-7.4, 300-305 mOsm/L. Recordings are obtained with an Axon Instruments 200B patch clamp amplifier that is controlled and monitored with an IBM PC running pCLAMP (v. 8) with a DigiData 1320 series interface (Axon instruments). Electrode resistances are typically 2-4 MΩ in the bath. After seal rupture to attain whole-cell recording conditions, series resistance (4-10 MΩ) is compensated (70-90%) and periodically monitored. The cell membrane potential is held at −60 mV.
(§3) The application of KA (200 μM) or NMDA (100 μM, in Mg^2+-free solution) evokes a partially desensitizing inward current. KA or NMDA is applied for 2 seconds every 30 seconds to minimize desensitization-induced decrease of current amplitude. Drugs are applied with a gravity-fed ‘sewer pipe’ system. The array of application capillaries (ca. 150 μm i.d.) is positioned a few hundred microns from the cell under study. Solution changes are effected by the SF-77B fast-step solution stimulus delivery device (Warner Instruments). Data are collected with PCLAMP software and analyzed with AXOGRAPH, KALEIDOGRAPH, and STATVIEW.
(§4) Compounds described herein inhibit the KA-induced rundown of AMPA current by either stabilizing the agonist-evoked current of increasing the current. Likewise, compounds described herein increase the NMDA-evoked current. The minimum effective dose (MED) was identified by determining the lowest concentration of inhibitor that was effective in each functional assay.

AMPA receptors = assay: Voltage whole-cell recording: inhibition of KA-induced rundown of AMPA current in acutely dissociated prefrontal cortical neurons; type: cell-based, rats; details: KA 200 μM; rat PFC neurons; whole-cell voltage clamp, held at −60 mV; 0.1 μM was the lowest concentration tested
Description: as §1, §2, §3, §4

Structure (SMILES)	Increase of NMDA-Evoked Current, Minimal Effective Concentration (NMDA receptors) [µM]	Average percent increase in NMDA current (10 μM) (NMDA receptors) [%]	Inhibition of KA-Induced Rundown of AMPA Current, Minimal Effective Concentration (AMPA receptors)
Cc1cc(-c2c(C)nn(-c3ccc(C(F)(F)F)cc3)c2O)[nH]n1 [Example 8, 5,5′-Dimethyl-2′-(4-trifluoromethyl-phenyl)-2H,2′H-[3,4′]bipyrazolyl-3′-ol]	1	303	–
Cc1cccc(-n2nc(C)c(-c3cc(C)n[nH]3)c2O)c1 [Example 15, 5,5′-Dimethyl-2′-(3-methyl-phenyl)-2H,2′H-[3,4′]bipyrazolyl-3′-ol]	–	–	1.0 µM
Cc1cc(-c2c(C)nn(-c3ccccc3)c2O)[nH]n1 [Example 25, 5,5′-Dimethyl-2′-phenyl-2H,2′H-[3,4′]bipyrazolyl-3′-ol]	–	–	1.0 µM
Cc1cc(-c2c(C)nn(-c3ccc(Cl)cc3)c2O)[nH]n1 [Example 5, 2′-(4-Chloro-phenyl)-5,5′-dimethyl-2H,2′H-[3,4′]bipyrazolyl-3′-ol]	–	–	0.1 * μM
Cc1cc(-c2c(C)nn(-c3ccccc3F)c2O)[nH]n1 [Example 4, 2′-(2-Fluoro-phenyl)-5,5′-dimethyl-2H,2′H-[3,4′]bipyrazolyl-3′-ol]	–	–	0.1 * μM
Cc1cc(-c2c(C)nn(-c3cccc(Cl)c3)c2O)[nH]n1 [Example 18, 5,5′-Dimethyl-2′-(3-chlorophenyl)-2H,2′H-[3,4′]bipyrazolyl-3′-ol]	5	55	1.0 µM
